The values below come from ChEMBL document CHEMBL1201862, “PubChem BioAssay data set” (2004).

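Growth conditions: 96-well plates. Treatment: test compound, 48 hours, 5 concentrations. Analysis: linear interpolation between bracketing concentrations; unreached endpoints set to highest concentration. Abbreviation: GI50, concentration required for 50% inhibition of growth.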 Active and inactive are the calls of the source. Cut-off read from the data, not from the text of the source: active = GI50 up to about 1.1 µM and inactive = higher.

Among the test systems are A549; EKVX; HCT-15; HL-60; HT-29; K562; LOX IMVI; Malme-3M; NCI-H226; NCI-H522; OVCAR-4; OVCAR-8; SF-295; SK-MEL-2; SK-OV-3; U-251; UO-31.
Holding throughout (experiment): NCI anticancer screen, dose series, 48 h

As to `CN1CCOC(C(NC(=O)c2ccccc2)c2ccccc2)C1=O` (stereo not given), the GI50 in the experiment on A549 is > 100 µM (inactive); in the experiment on EKVX, > 100 µM (inactive); with HCT-15, more than 100 µM; in the experiment with HL-60, > 100 µM (inactive); in the experiment with HT-29, > 100 µM (inactive); in the experiment on K562, > 100 µM (inactive). In addition, the GI50 in the experiment on LOX IMVI, in the experiment with Malme-3M, in the experiment with NCI-H226, in the experiment with NCI-H522, in the experiment on OVCAR-4 and with OVCAR-8 was > 100 µM (inactive) in each case. In addition, the GI50 in the experiment on SF-295, in the experiment with SK-MEL-2, in the experiment with SK-OV-3, with U-251 and with UO-31 was > 100 µM (inactive) in each case.
Regarding `CC1(C)Cc2cc(C(=O)O)c3c(c2C1=O)COCC3`, the GI50 with A549 was > 100 µM (inactive); in the experiment with EKVX, > 100 µM (inactive); with HCT-15, more than 100 µM; in the experiment with HL-60, > 100 µM (inactive); with HT-29 it was > 100 µM (inactive); with K562, > 100 µM (inactive). For the same compound, the GI50 was > 100 µM (inactive) with LOX IMVI; > 100 µM (inactive) in the experiment with Malme-3M; > 100 µM (inactive) in the experiment on NCI-H226; 32.4 µM (inactive) in the experiment on NCI-H522; > 100 µM (inactive) with OVCAR-4; > 100 µM (inactive) with OVCAR-8. Further, the GI50 in the experiment with SF-295, in the experiment on SK-MEL-2, with SK-OV-3, in the experiment with U-251 and in the experiment on UO-31 was > 100 µM (inactive) in each case.
In the case of `O=C(NC1CCCCCC1)C1C(=O)N(C2CCCCCC2)C(=O)/C1=N\O` (stereo not given), the GI50 in the experiment with A549 was 42.8 µM (inactive); in the experiment on EKVX, 36.2 µM (inactive); in the experiment on HCT-15, 34.4 µM; in the experiment with HL-60 it was 22.5 µM (inactive); in the experiment with HT-29, 30.3 µM (inactive); in the experiment with K562, 39.1 µM (inactive). The GI50 with LOX IMVI was 35.6 µM (inactive); in the experiment on Malme-3M, 24.4 µM (inactive); in the experiment on NCI-H226, 35.6 µM (inactive); with NCI-H522, 19.6 µM (inactive); with OVCAR-4, 44.1 µM (inactive); in the experiment on OVCAR-8, 38.6 µM (inactive). The GI50 in the experiment on SF-295 is 36.6 µM (inactive); in the experiment with SK-MEL-2, 17.1 µM (inactive); in the experiment on SK-OV-3, 38.4 µM (inactive); in the experiment with U-251 it was 18.6 µM (inactive); in the experiment on UO-31, 28.4 µM (inactive).
With `CN(C)CC1CCCC(CN(C)C)C1OC(=O)c1ccccc1` (stereo not given), the GI50 in the experiment on A549 is > 100 µM (inactive); in the experiment with EKVX it was > 100 µM (inactive); in the experiment with HCT-15 it was more than 100 µM; in the experiment with HL-60, > 100 µM (inactive); in the experiment with HT-29, > 100 µM (inactive); in the experiment with K562, > 100 µM (inactive). For the same compound, the GI50 in the experiment on LOX IMVI, with Malme-3M, with NCI-H226, with NCI-H522, with OVCAR-4 and in the experiment on OVCAR-8 was > 100 µM (inactive) each time. The GI50 in the experiment on SF-295, in the experiment with SK-MEL-2, with SK-OV-3, in the experiment with U-251 and with UO-31 was > 100 µM (inactive) each time.
`COc1cc2c(cc1OC)C1(c3ccc(Cl)cc3)ON=C(c3ccccc3)N1CS2` (stereo not given): the GI50 is > 100 µM (inactive) in the experiment on A549; > 100 µM (inactive) in the experiment with EKVX; more than 100 µM in the experiment with HCT-15; 24.2 µM (inactive) with HL-60; 15.5 µM (inactive) with HT-29; 75.3 µM (inactive) in the experiment on K562. The GI50 was 30.1 µM (inactive) with LOX IMVI; > 100 µM (inactive) in the experiment with Malme-3M; > 100 µM (inactive) with NCI-H226; 58.9 µM (inactive) with NCI-H522; > 100 µM (inactive) in the experiment on OVCAR-4; 95.3 µM (inactive) in the experiment with SF-295. Moreover, the GI50 with SK-MEL-2 was > 100 µM (inactive); in the experiment on SK-OV-3, > 100 µM (inactive); in the experiment on U-251, > 100 µM (inactive); in the experiment on UO-31 it was 27.1 µM (inactive).
As to `C/C(CC(=O)Nc1cccc(Cl)c1C)=N\N=C(N)N`, the GI50 with A549 is > 100 µM (inactive); in the experiment on EKVX it was > 100 µM (inactive); in the experiment on HCT-15 it was more than 100 µM; with HL-60, > 100 µM (inactive); with HT-29, > 100 µM (inactive); in the experiment with K562 it was 24.1 µM (inactive). For the same compound, the GI50 with LOX IMVI, in the experiment on Malme-3M, with NCI-H226, in the experiment on NCI-H522, in the experiment on OVCAR-4 and in the experiment with OVCAR-8 was > 100 µM (inactive) throughout. The GI50 with SF-295, in the experiment on SK-MEL-2, in the experiment on SK-OV-3, in the experiment with U-251 and in the experiment with UO-31 was > 100 µM (inactive) each time.
For `Cc1nnc(N/N=C2\C(=O)Nc3ccccc32)n1N`, the GI50 in the experiment with A549 was > 100 µM (inactive); with EKVX it was > 100 µM (inactive); with HCT-15, more than 100 µM; in the experiment on HL-60, 25.9 µM (inactive); in the experiment on HT-29, > 100 µM (inactive); with K562, 29.6 µM (inactive). In addition, the GI50 in the experiment on LOX IMVI, with Malme-3M, with NCI-H226, with NCI-H522, in the experiment with OVCAR-4 and with OVCAR-8 was > 100 µM (inactive) throughout. The GI50 in the experiment on SF-295, in the experiment on SK-MEL-2, in the experiment on SK-OV-3, in the experiment on U-251 and in the experiment on UO-31 was > 100 µM (inactive) throughout.
Turning to `CC(C)(C)c1cc(CCCCCCCC2(CCCCCCCc3cc(C(C)(C)C)cc(C(C)(C)C)c3)OC(COCCOCCCCCC#N)C(COCCOCCCCCC#N)O2)cc(C(C)(C)C)c1` (stereo not given), the GI50 with A549 is > 100 µM (inactive); in the experiment with EKVX, > 100 µM (inactive); in the experiment on HCT-15 it was more than 100 µM; in the experiment with HL-60, > 100 µM (inactive); in the experiment on HT-29, > 100 µM (inactive); with K562, > 100 µM (inactive). The GI50 in the experiment on LOX IMVI, in the experiment with Malme-3M, in the experiment on NCI-H226, in the experiment on NCI-H522, in the experiment with OVCAR-4 and in the experiment with OVCAR-8 was > 100 µM (inactive) each time. In addition, the GI50 with SF-295, with SK-MEL-2, in the experiment with SK-OV-3, in the experiment on U-251 and in the experiment with UO-31 was > 100 µM (inactive) throughout.
With `Cc1cc(Br)cc(C)c1NC(=O)C(=O)C(C(=O)c1ccc(Cl)c(Cl)c1)C1OC(=O)c2ccccc21` (stereo not given), the GI50 in the experiment on A549 was 74.3 µM (inactive); in the experiment on EKVX it was 4.19 µM (inactive); with HCT-15 it was 50.2 µM; in the experiment on HL-60 it was 24.5 µM (inactive); in the experiment with HT-29, 29.9 µM (inactive); in the experiment on K562 it was 28.2 µM (inactive). In addition, the GI50 in the experiment with LOX IMVI is > 100 µM (inactive); with Malme-3M it was > 100 µM (inactive); with NCI-H226, 72.6 µM (inactive); in the experiment on NCI-H522, 36.5 µM (inactive); with OVCAR-4 it was > 100 µM (inactive); with OVCAR-8 it was > 100 µM (inactive). The GI50 in the experiment with SF-295 was 90.6 µM (inactive); in the experiment with SK-MEL-2, > 100 µM (inactive); in the experiment on SK-OV-3, 49.5 µM (inactive); in the experiment on U-251, 44.6 µM (inactive); in the experiment with UO-31, 26.2 µM (inactive).
As for `O=c1oc2cc(O)ccc2c2[nH]c3cc(O)ccc3c12`, the GI50 in the experiment on A549 is 42.7 µM (inactive); in the experiment with EKVX, 26.5 µM (inactive); in the experiment with HCT-15 it was 27 µM; in the experiment on HL-60, 21.8 µM (inactive); in the experiment on HT-29, 35.1 µM (inactive); in the experiment on K562 it was 45.9 µM (inactive). Also, the GI50 in the experiment on LOX IMVI is 18.5 µM (inactive); in the experiment with Malme-3M, 32.6 µM (inactive); in the experiment with NCI-H226, 21.4 µM (inactive); in the experiment on NCI-H522, 11.7 µM (inactive); in the experiment with OVCAR-4, 37.4 µM (inactive); with OVCAR-8 it was 27.2 µM (inactive). Moreover, the GI50 in the experiment with SF-295 was 66.8 µM (inactive); with SK-MEL-2, 19.1 µM (inactive); in the experiment with SK-OV-3, 22.2 µM (inactive); with U-251 it was 21.4 µM (inactive); in the experiment with UO-31 it was 26.2 µM (inactive).
Regarding `C#CC1(O)CCC2[C@@H]3CCc4cc(Oc5nc(F)nc(-c6c7ccccc7c(SCC)n6CCC)n5)ccc4C3CC[C@@]21C` (stereo not given in full), the GI50 is > 100 µM (inactive) in the experiment with A549; 59.6 µM (inactive) with EKVX; more than 100 µM in the experiment on HCT-15; > 100 µM (inactive) in the experiment with HL-60; > 100 µM (inactive) in the experiment with HT-29; 51.4 µM (inactive) with K562. Besides, the GI50 with LOX IMVI was 76 µM (inactive); in the experiment with Malme-3M it was > 100 µM (inactive); with NCI-H226, 20.6 µM (inactive); with NCI-H522, > 10 µM (inactive); in the experiment with OVCAR-4, > 100 µM (inactive); in the experiment with OVCAR-8, > 100 µM (inactive). Also, the GI50 with SF-295 is 65.8 µM (inactive); in the experiment with SK-MEL-2 it was 19.9 µM (inactive); with SK-OV-3, > 100 µM (inactive); in the experiment on U-251, 54.6 µM (inactive); in the experiment with UO-31 it was 33.3 µM (inactive).
Take `COc1cc(OC)c2c(=O)cc(-c3ccc(OC)c(OC)c3OC)oc2c1`: the GI50 in the experiment on A549 is > 100 µM (inactive); in the experiment on EKVX, > 100 µM (inactive); in the experiment on HCT-15, more than 100 µM; in the experiment with HL-60, > 100 µM (inactive); in the experiment with HT-29 it was > 100 µM (inactive); in the experiment on K562, > 100 µM (inactive). The GI50 in the experiment on LOX IMVI was > 100 µM (inactive); in the experiment on Malme-3M, > 100 µM (inactive); in the experiment on NCI-H226, > 100 µM (inactive); in the experiment with NCI-H522, 38.9 µM (inactive); in the experiment with OVCAR-4, 54.3 µM (inactive); in the experiment with SF-295, 52.2 µM (inactive). The GI50 with SK-MEL-2 is 60.1 µM (inactive); with SK-OV-3, > 100 µM (inactive).
